Drawing on patent US4396770A, “1-[3-(6-Fluoro-1,2-benzisoxazol-3-yl)propyl]-4-hydroxy -4-phenylpiperidines” (Hoechst-Roussel Pharmaceuticals Inc., priority 1982, dated 1983), this text covers ED50 for 13 molecules.

In test [1] the test system is apomorphine-induced climbing. Briefly: climbing mice assay (antipsychotic activity). Format: in vivo, CK-1 male mice. Particulars: Mus musculus, ip. As for the experimental part:
The 1-[3-(6-fluoro-1,2-benzisoxazol-3-yl)propyl]-4-hydroxy-4-phenylpiperidinesof the present invention are useful for treating psychoses by virtue of their ability to block apomorphine-induced climbing in mammals.
Antipsychotic activity is determined in the climbing mice assay by a method similar to those described by P. Protais et al., Psychopharmacol., 50, 1 (1976) and B. Costall, Eur. J. Pharmacol., 50, 39 (1978).
The subject CK-1 male mice (23-27 grams) are group-housed under standard laboratory conditions. The mice are individually placed in wire mesh stick cages (4"×4"×10") and are allowed one hour for adaptation and exploration of the new environment. Then apomorphine is injected subcutaneously at 1.5 mg/kg, a dose causing climbing in all subjects for 30 minutes. Compounds to be tested for antipsychotic activity are injected intraperitoneally 30 minutes prior to the apomorphine challenge at a screening dose of 10 mg/kg.
For evaluation of climbing, 3 readings are taken at 10, 20 and 30 minutes after apomorphine administration according to the following scale:
Mice consistently climbing before the injection of apormorphine will be discarded.
With full-developed apomorphine climbing, the animals are hanging onto the cage walls, rather motionless, over longer periods of time. By contrast, climbs due to mere motor stimulation usually only last a few seconds.
The climbing scores are individually totaled (maximal score: 6 per mouse over 3 readings) and the total score of the control group (vehicle intraperitoneally--apomorphine subcutaneously) is set to 100%. ED50 values with 95% confidence limits are calculated by a Linear Regression Analysis. Antipsychotic activity expressed as the ED50 value of representative 1-[3-(6-fluoro-1,2-benzisoxazol-3-yl)propyl]-4-hydroxy-4-phenylpiperidinesas well as two standard antipsychotics are presented in Table II.

Test [2] has as its system phenyl-para-quinone induced writhes. Nature of the test: phenyl-para-quinone writhing assay in mice (analgesia). It is filed as in vivo. Particulars: Mus musculus, sc, subcutaneous, estimated dose for 50% reduction in phenyl-para-quinone induced writhes, read-out: Analgesic Activity (ED50 mg/kg). The text has this: Exptl. Biol. Med., 95, 729 (1953)]. Presented in Table 1 is the analgesic activity of representative compounds of the invention and two standards, expressed as the estimated subcutaneous dose at which the mice experience a 50% reduction in phenyl-para-quinone induced writhes, i.e., the ED50 -value.

Setting [3] is: read-out: Antipsychotic Activity ED50 (mg/kg).

Read-outs that look alike come from different tables or passages of the source.

In the case of `OC1(c2ccccc2)CCN(CCCc2noc3cc(F)ccc23)CC1` [Example 1, 1-[3-(6-Fluoro-1,2-benzisoxazol-3-yl)propyl]-4-hydroxy-4-phenylpiperidine], the values for the ED50 in test [1] (setting [3]) and in test [2] were 9.6 mg/kg and 5.9 mg/kg, respectively.
For the molecule `Cl.OC1(c2cccc(Cl)c2)CCN(CCCc2noc3cc(F)ccc23)CC1` [Example 2, 4-(3-Chlorophenyl)-1-[3-(6-fluoro-1,2-benzisoxazol-3-yl)propyl]-4-hydroxypiperidine hydrochloride], the ED50 in test [1] (setting [3]) and in test [2] was 0.8 mg/kg each time.
Consider `OC1(c2ccc(Cl)cc2)CCN(CCCc2noc3cc(F)ccc23)CC1` [Example 3, 4-(4-Chlorophenyl)-1-[3-(6-fluoro-1,2-benzisoxazol-3-yl)propyl]-4-hydroxypiperidine], for which the ED50 in test [1] (setting [3]) was determined as 0.51 mg/kg.
As for `OC1(c2ccc(F)cc2)CCN(CCCc2noc3cc(F)ccc23)CC1` [Example 4, 1-[3-(6-Fluoro-1,2-benzisoxazol-3-yl)propyl]-4-(4-fluorophenyl)-4-hydroxypiperidine], the ED50 in test [1] (setting [3]) was 0.8 mg/kg; in test [2] it was 6.2 mg/kg.
For `Cc1ccccc1C1(O)CCN(CCCc2noc3cc(F)ccc23)CC1.Cl` [Example 5, 1-[3-(6-Fluoro-1,2-benzisoxazol-3-yl)propyl]-4-hydroxy-4-(2-methylphenyl)piperidine hydrochloride], the ED50 in test [1] (setting [3]) was 8.3 mg/kg.
Regarding `Cc1ccc(C2(O)CCN(CCCc3noc4cc(F)ccc34)CC2)cc1` [Example 6], the ED50 in test [1] (setting [3]) was determined as 0.56 mg/kg.
For the molecule `COc1ccc(C2(O)CCN(CCCc3noc4cc(F)ccc34)CC2)cc1.Cl` [Example 7, 1-[3-(6-Fluoro-1,2-benzisoxazol-3-yl)propyl]-4-hydroxy-4-(4-methoxyphenyl)piperidine hydrochloride], the ED50 in test [2] is 3.8 mg/kg.
In the case of `Cl.OC1(c2cccc(C(F)(F)F)c2)CCN(CCCc2noc3cc(F)ccc23)CC1` [Example 8, 1-[3-(6-Fluoro-1,2-benzisoxazol-3-yl)propyl]-4-hydroxy-4-(3-trifluoromethylphenyl)piperidine hydrochloride], the ED50 in test [1] (setting [3]) is 0.25 mg/kg; in test [2], 1 mg/kg.
Take `OC1(c2ccc(C(F)(F)F)cc2)CCN(CCCc2noc3cc(F)ccc23)CC1` [Example 9, 1-[3-(6-Fluoro-1,2-benzisoxazol-3-yl)propyl]-4-hydroxy-4-(4-trifluoromethylphenyl)piperidine]: in test [1] (setting [3]), the ED50 amounted to 3.1 mg/kg.
With `O=C(CCCN1CCC(O)(c2ccc(Cl)cc2)CC1)c1ccc(F)cc1` [haloperidol, reference compound], in test [1] (setting [3]), the ED50 was 0.11 mg/kg.
With `CC(C)=CCN1CCC2(C)c3cc(O)ccc3CC1C2C` (centres unmarked) [pentazocin, reference compound], in test [2], the ED50 is 1.3 mg/kg.
Regarding `CCC(=O)O[C@](Cc1ccccc1)(c1ccccc1)[C@H](C)CN(C)C` [propoxyphene, reference compound], the ED50 in test [2] is 3.9 mg/kg.
Take `CCN1CCCC1CNC(=O)c1cc(S(N)(=O)=O)ccc1OC` (centres unmarked) [sulpiride, reference compound]: the ED50 in test [1] (mice, intraperitoneal 30 minutes prior to apomorphine 1.5 mg/kg subcutaneously, climbing scores at 10, 20 and 30 minutes, read-out: Antipsychotic Activity ED50) was 4.5 mg/kg.
